# Key:
# IL-6 [1] = assay: AGE (G-HSA)-induced inflammatory response determined by IL-6 ELISA in HAEC; assay type: cell-based, human; conditions: Homo sapiens; for activity at 10 µM: 24 h, Compds tested @ 10 uM; for IC50: IL6, unit inferred, read-out: IC50 (AGE stimulation of IL6)
# Method: Human aortic endothelial cells (HAEC, Clonetics) were cultured according to manufacturer in growth medium (Clonetics): basal medium containing human epidermal growth factor, hydrocortisone, vascular endothelial growth factor, heparin binding growth factor-B, long R3-insulin-like growth factor-1, ascorbic acid, gentamicin/amphotericin and 5% FBS. These cell were allowed to reach at least 90% confluency before subjected to experimental treatments. […] Tumor necrosis factor α was from R&D Systems.
# All treatments, compound-added and controls were carried out in serum free media containing 0.2% albumin. Media from all conditions were collected and used for IL-6 ELISA.
# (§1) IL-6 ELISA was carried out using human IL-6 DuoSet ELISA development kit as described by manufacturer (R&D Systems). Mouse anti-human Il-6 was used as the capture antibody (2 ug/ml) and biotinylated goat anti-human IL-6 (200 ng/ml) was used as the detection antibody. Culture media were incubated with capture antibody (in 96 well) for 2 h at room temperature. Wells were washed three times with wash buffer (0.05% tween-20 in phosphate buffered saline (PBS) pH 7.4) followed by incubation with detection antibody for 2 h at room temperature. Following three washes wells were incubated with Streptavidin-HRP for 20 min. Color development was read at 450 nm in a Microplate reader.
# IL-6 [2] = assay: TNF-α-induced IL-6 production determined by IL-6 ELISA in HAEC; assay type: cell-based, human; conditions: Homo sapiens, HAEC, IL6; for activity at 10 µM: 24 h, Compds tested @ 10 uM, read-out: % IL6 production compare to TNF stimulation of IL6 (100%)
# Method: Human aortic endothelial cells (HAEC, Clonetics) were cultured according to manufacturer in growth medium (Clonetics): basal medium containing human epidermal growth factor, hydrocortisone, vascular endothelial growth factor, heparin binding growth factor-B, long R3-insulin-like growth factor-1, ascorbic acid, gentamicin/amphotericin and 5% FBS. These cell were allowed to reach at least 90% confluency before subjected to experimental treatments. Glycated human serum albumin (G-HSA) was from US Biologicals. Tumor necrosis factor α was from R&D Systems.
# […] All treatments, compound-added and controls were carried out in serum free media containing 0.2% albumin. Media from all conditions were collected and used for IL-6 ELISA.
# as §1
# [3] = IL6, read-out: % IL6 production compare to AGE stimulation of IL6 (100%)
Structure (SMILES),activity at 10 µM (IL-6 [1]; [3]),activity at 10 µM (IL-6 [2]),other results
"CCN1CCCC1CNc1nc(Nc2ccc3ncccc3c2)nc(NC2CCCCCC2)n1 (stereo not shown) [Compound 4, N^2-cycloheptyl-N^4-[(1-ethyl-2-pyrrolidinyl)methyl]-N^6-(6-quinolinyl)-1,3,5-triazine-2,4,6-triamine]",1%,–,–
"CCN1CCCC1CNc1nc(Nc2ccc(F)cc2)nc(NC2CCCCCC2)n1 (stereo not shown) [Compound 10, N^2-cycloheptyl-N^4-[(1-ethyl-2-pyrrolidinyl)methyl]-N^6-(4-fluorophenyl)-1,3,5-triazine-2,4,6-triamine]",1%,–,–
"CCN1CCCC1CNc1nc(Nc2ccc(C#N)cc2)nc(NC2CCCCCC2)n1 (stereo not shown) [Compound 11, 4-[(4-(cycloheptylamino)-6-{[(1-ethyl-2-pyrrolidinyl)methyl]amino}-1,3,5-triazin-2-yl)-amino]benzonitrile]",1%,–,IC50 (IL-6 [1]): 8.87 µM
"CCN1CCCC1CNc1nc(Nc2ccc3c(c2)OCCO3)nc(NC2CCCCCC2)n1 (stereo not shown) [Compound 24, N^2-cycloheptyl-N^4-(2,3-dihydro-1,4-benzodioxin-6-yl)-N^6-[(1-ethyl-2-pyrrolidinyl)methyl]-1,3,5-triazine-2,4,6-triamine]",1%,–,–
"CCN1CCCC1CNc1nc(Nc2ccc(N(C)C)cc2)nc(NC2CCCCCC2)n1 (stereo not shown) [Compound 25, N^2-cycloheptyl-N^4-[4-(dimethylamino)phenyl]-N^6-[(1-ethyl-2-pyrrolidinyl)methyl]-1,3,5-triazine-2,4,6-triamine]",1%,–,–
"CCN1CCCC1CNc1nc(Nc2ccc(N3CCOCC3)cc2)nc(NC2CCCCCC2)n1 (stereo not shown) [Compound 27, N^2-cycloheptyl-N^4-[(1-ethyl-2-pyrrolidinyl)methyl]-N^6-[4-(4-morpholinyl)phenyl]-1,3,5-triazine-2,4,6-triamine]",1%,3%,–
"CCN1CCCC1CNc1nc(Nc2ccc(NC(C)=O)cc2)nc(NC2CCCCCC2)n1 (stereo not shown) [Compound 29, N-{4-[(4-(cycloheptylamino)-6-{[(1-ethyl-2-pyrrolidinyl)methyl]amino}-1,3,5-triazin-2-yl)-amino]phenyl}acetamide]",7%,13%,–
"CCN1CCCC1CNc1nc(Nc2cccc(NC(C)=O)c2)nc(NC2CCCCCC2)n1 (stereo not shown) [Compound 30, N-{3-[(4-(cycloheptylamino)-6-{[(1-ethyl-2-pyrrolidinyl)methyl]amino}-1,3,5-triazin-2-yl)-amino]phenyl}acetamide]",17%,9%,–
"CCOc1ccc(Nc2nc(NCC3CCCN3CC)nc(NC3CCCCCC3)n2)cc1 (stereo not shown) [Compound 32, N^2-cycloheptyl-N^4-(4-ethoxyphenyl)-N^6-[(1-ethyl-2-pyrrolidinyl)methyl]-1,3,5-triazine-2,4,6-triamine]",1%,–,–
"CCN1CCCC1CNc1nc(Nc2ccccn2)nc(NC2CCCCCC2)n1 (stereo not shown) [Compound 34, N^2-cycloheptyl-N^4-[(1-ethyl-2-pyrrolidinyl)methyl]-N^6-(2-pyridinyl)-1,3,5-triazine-2,4,6-triamine]",1%,3%,–
"CCN1CCCC1CNc1nc(Nc2scc(C)c2C(N)=O)nc(NC2CCCCCC2)n1 (stereo not shown) [Compound 39, 2-[(4-(cycloheptylamino)-6-{[(1-ethyl-2-pyrrolidinyl)methyl]amino}-1,3,5-triazin-2-yl)-amino]-4-methyl-3-thiophenecarboxamide]",28%,–,–
"CCN1CCCC1CNc1nc(NC2CCCCCC2)nc(N(C)c2ccc(Cl)cc2)n1 (stereo not shown) [Compound 40, N^2-(4-chlorophenyl)-N^4-cycloheptyl-N^6-[(1-ethyl-2-pyrrolidinyl)methyl]-N^2-methyl-1,3,5-triazine-2,4,6-triamine]",19%,–,–
"CCN1CCCC1CNc1nc(NC2CCCCCC2)nc(N(CCC#N)c2ccccc2)n1 (stereo not shown) [Compound 41, 3-[(4-(cycloheptylamino)-6-{[(1-ethyl-2-pyrrolidinyl)methyl]amino}-1,3,5-triazin-2-yl)-(phenyl)amino]propanenitrile]",18%,–,–
"CCN1CCCC1CNc1nc(NC2CCCCCC2)nc(N(C)c2ccc(OC)cc2)n1 (stereo not shown) [Compound 42, N^2-cycloheptyl-N^4-[(1-ethyl-2-pyrrolidinyl)methyl]-N^6-(4-methoxyphenyl)-N^6-methyl-1,3,5-triazine-2,4,6-triamine]",1%,1%,–
"CCN1CCCC1CNc1nc(NC2CCCCCC2)nc(N(C)c2ccc(F)cc2F)n1 (stereo not shown) [Compound 43, N^2-cycloheptyl-N^4-(2,4-difluorophenyl)-N^6-[(1-ethyl-2-pyrrolidinyl)methyl]-N^4-methyl-1,3,5-triazine-2,4,6-triamine]",4%,–,–
"CCN1CCCC1CNc1nc(NC2CCCCCC2)nc(N(CC#N)c2ccccc2)n1 (stereo not shown) [Compound 44, [(4-(cycloheptylamino)-6-{[(1-ethyl-2-pyrrolidinyl)methyl]amino}-1,3,5-triazin-2-yl)(phenyl)amino]acetonitrile]",1%,–,IC50 (IL-6 [1]): 7.1 µM
"CCN1CCCC1CNc1nc(NC2CCCCCC2)nc(N(C)c2cccc(Cl)c2)n1 (stereo not shown) [Compound 45, N^2-(3-chlorophenyl)-N^4-cycloheptyl-N^6-[(1-ethyl-2-pyrrolidinyl)methyl]-N^2-methyl-1,3,5-triazine-2,4,6-triamine]",1%,–,–
"CCN1CCCC1CNc1nc(NC2CCCCCC2)nc(N(C)c2ccccc2C(F)(F)F)n1 (stereo not shown) [Compound 46, N^2-cycloheptyl-N^4-[(1-ethyl-2-pyrrolidinyl)methyl]-N^6-methyl-N^6-[2-(trifluoromethyl)phenyl]-1,3,5-triazine-2,4,6-triamine]",3%,–,–
"CCN1CCCC1CNc1nc(NCc2ccccc2)nc(Nc2ccc(OC)c(F)c2)n1 (stereo not shown) [Compound 53, N^2-benzyl-N^4-[(1-ethyl-2-pyrrolidinyl)methyl]-N^6-(3-fluoro-4-methoxyphenyl)-1,3,5-triazine-2,4,6-triamine]",32%,1%,–
"CCN1CCCC1CNc1nc(Nc2ccc(OC)c(F)c2)nc(N2CCCC2)n1 (stereo not shown) [Compound 57, N^2-[(1-ethyl-2-pyrrolidinyl)methyl]-N^4-(3-fluoro-4-methoxyphenyl)-6-(1-pyrrolidinyl)-1,3,5-triazine-2,4-diamine]",25%,1%,–
"CCN1CCCC1CNc1nc(Nc2ccc(OC)c(F)c2)nc(N2CCN(C)CC2)n1 (stereo not shown) [Compound 62, N^2-[(1-ethyl-2-pyrrolidinyl)methyl]-N^4-(3-fluoro-4-methoxyphenyl)-6-(4-methyl-1-piperazinyl)-1,3,5-triazine-2,4-diamine]",42%,–,–
"CCN1CCCC1CNc1nc(NCC2CCCCC2)nc(Nc2ccc(OC)c(F)c2)n1 (stereo not shown) [Compound 65, N^2-(cyclohexylmethyl)-N^4-[(1-ethyl-2-pyrrolidinyl)methyl]-N^6-(3-fluoro-4-methoxyphenyl)-1,3,5-triazine-2,4,6-triamine]",45%,1%,"IC50 (IL-6 [1]): 3.24 µM; IC50 (IL-6 [2]; unit inferred, read-out: IC50 (TNF stimulation of IL6)): 6.7 µM"
"CCN1CCCC1CNc1nc(NCc2ccco2)nc(Nc2ccc(OC)c(F)c2)n1 (stereo not shown) [Compound 66, N^2-[(1-ethyl-2-pyrrolidinyl)methyl]-N^4-(3-fluoro-4-methoxyphenyl)-N^6-(2-furylmethyl)-1,3,5-triazine-2,4,6-triamine]",23%,1%,–
"CCN1CCCC1CNc1nc(NCC(F)(F)F)nc(Nc2ccc(OC)c(F)c2)n1 (stereo not shown) [Compound 67, N^2-[(1-ethyl-2-pyrrolidinyl)methyl]-N^4-(3-fluoro-4-methoxyphenyl)-N^6-(2,2,2-trifluoroethyl)-1,3,5-triazine-2,4,6-triamine]",39%,–,–
"CCN1CCCC1CNc1nc(NCCCN2CCCC2=O)nc(Nc2ccc(OC)c(F)c2)n1 (stereo not shown) [Compound 74, 1-[3-({4-{[(1-ethyl-2-pyrrolidinyl)methyl]amino}-6-[(3-fluoro-4-methoxyphenyl)amino]-1,3,5-triazin-2-yl}amino)propyl]-2-pyrrolidinone]",49%,–,–
"COc1ccc(Nc2nc(NCCCn3ccnc3)nc(NC3CCCCCC3)n2)cc1F [Compound 100, N^2-cycloheptyl-N^4-(3-fluoro-4-methoxyphenyl)-N^6-[3-(1H-imidazol-1-yl)propyl]-1,3,5-triazine-2,4,6-triamine]",1%,–,–
"CN1CCC(N(C)c2nc(Nc3ccc4ccccc4c3)nc(NC3CC3)n2)CC1 [Compound 180, N-Cyclopropyl-N′-methyl-N′-(1-methyl-piperidin-4-yl)-N″-naphthalen-2-yl-[1,3,5]triazine-2,4,6-triamine]",–,–,activity at 10 µM (IL-6 [1]; read-out: % IL6 production compare to AGE stimulation of IL6 (100%)): 5%
